According to patent publication US5068247A, “2-aminopentanoic acid compounds and their use as immunosuppressants” (priority 1989, dated 1991):
≈ marks a conversion by molar mass, not a printed value. Where a name gives a salt, the structure may show the parent alone.

Legend:
[1] = tested on: allo-reactive cytotoxic T cells in spleen of EL4-immunized BALB/c mice; test: suppression of allo-reactive cytotoxic T cells induced by immunization of mouse with allogenic cells; assay type: in vivo; settings: Table 9F
Procedure: Male 5- to 7-week-old BALB/c mice (H-2^d) were immunized with leukemia cell EL4 derived from C57BL/6 mice (H-2^b) (10^7 cells/mouse, intraperitoneal administration), and the test substance was administered intraperitoneally 5 times at the doses of 0.001 to 3 mg/kg/day or orally at the doses of 0.3 to 10 mg/kg/day from the day of immunization. Nine to ten days after immunization, the spleen was resected from the mice to prepare a single cell suspension and the suspension was used as effector cell suspension. The ^51 Cr-release assay was carried out in the same way as in Experiment Example 3, using EL4 cells as the target cells to measure the cytotoxic activity.
The activity of allo-reactive cytotoxic T cell is indicated by lytic unit (LU) per spleen. One lytic unit (LU) is defined as the number of effector cells required to cause 25% lysis of 5×10^3 target cells. At the same time, the body weight of mouse and number of spleen cells were also determined.

[2] = tested on: allo-specific cytotoxic antibody in serum of EL4-immunized BALB/c mice; test: suppression of allo-specific cytotoxic antibody production induced by allogenic cell immunization of mouse; assay type: in vivo
Procedure: Male 5- to 7-week-old BALB/c mice were immunized with leukemia cell EL4 derived from C57BL/6 mice (10^7 cells/mouse, intraperitoneal administration) in the same way as in Experiment Example 9, and the […] Nine to ten days after immunization, a serum was collected from the mice. Fifty μl of the two-fold serial dilution of the serum, 50 μl of a guinea pig complement and EL4 cell suspension labelled with ^51 Cr as the target cell (5×10^4 cells/ml, 100 μl) were together added to a 96-well microtest plate. After incubation at 37° C. for 1 hour, the amount of ^51 Cr released in the supernatant was measured, and the complement-dependent cytotoxicity was calculated by the following formula. [formula]
The value of allo-specific cytotoxic antibody determined as above was expressed by the titer calculated on the basis of the concentration at which the releasing amount of ^51 Cr was 50% of that of ^51 Cr-labelled target cells treated with 0.1 N HCl.

[3] = tested on: mouse allogenic MLR (BALB/c mouse spleen cells stimulated with C57BL/6 mouse spleen cells); test: mouse allogenic mixed lymphocyte reaction (MLR), 3H-thymidine uptake; assay type: cell-based
Procedure: The immunosuppressive activity of the compounds was assayed on the basis of mouse allogenic mixed lymphocyte reaction (hereinafter sometimes abbreviated as MLR). Mouse allogenic MRL was carried out using a mixed culture of BALB/c mouse (H-2^d) spleen cells as the responder cells and mitomycin C-treated C57BL/6 ([…]) mouse spleen cells as the stimulator cells in equal amounts.
The responder cells were prepared as follows:
The spleen was resected from 5- to 6-week-old BALB/c mice, and single cell suspension of spleen cells was prepared by using the RPMI1640 culture medium (containing 60 μg/ml of kanamycin sulfate, 2 mM of L-glutamine, 10 mM of N-2-hydroxyethylpiperazine-N'-2-ethanesulphonate (HEPES) and 0.1% sodium hydrogencarbonate) to which heat-inactivated fetal calf serum (hereinafter sometimes abbreviated as FCS) had been added to 5%. After hemolytic treatment, the cell suspension was adjusted to a concentration of 10^7 cells/ml with the RPMI1640 culture medium supplemented with 10^-4 M 2-mercapto-ethanol and 20% FCS, and was used as the responder cell suspension.
The stimulator cells were prepared as follows: The spleen was resected from 5- to 6-week-old male C57BL/6 mice, and a single cell suspension of spleen cells was prepared by using the RPMI1640 culture medium. After hemolytic treatment, the cells were treated with 40 μg/ml of mitomycin C at 37° C. for 60 minutes. After washing three times, the cell suspension was adjusted to a concentration of 10^7 cells/ml with the RPMI1640 culture medium supplemented with 10^-4 M 2-mercapto-ethanol and 20% FCS, and was used as the stimulator cell suspension.
The blastogenesis of lymphocytes was assayed using ^3 H-thymidine uptake as an index. That is, after termination of culture, 18.5 KBq/well of ^3 H-thymidine was added thereto and the suspension was cultured for 4 hours. Cells were harvested by a cell-harvester, and the radioactivity incorporated into the cells was determined by a liquid scintillation counter, which was used as an index of blastogenesis of lymphocytes in the mouse allogenic MLR. The suppression of the mouse allogenic MLR was evaluated by calculating the percent suppression by the following formula.
The test substance dissolved in methanol was diluted with the RPMI1640 culture medium and put to use.

[4] = tested on: IL-2 production in PHA-stimulated mouse spleen cells; test: suppression of IL-2 production in PHA-stimulated mouse spleen cells; assay type: cell-based
Procedure: (§1) The suppression of IL-2 and IL-3 production in the mitogen-stimulated mouse spleen cells was examined as follows:
(§2) The spleen was resected from 5- to 8-week-old male C3H/HeN mice, and a single cell suspension of spleen cells was prepared by using the RPMI1640 culture medium. After hemolytic treatment, the concentration of the suspension was adjusted to 10^7 cells/ml by using the RPMI1640 culture medium supplemented with 20% FCS, to which 10 μg/ml of phytohemagglutinin (PHA) was added as mitogen. […] After termination of culture, the supernatant was collected and used as the culture supernatant of PHA-stimulated mouse spleen cells.
The IL-2 activity in the culture supernatant of PHA-stimulated mouse spleen cells was assayed as follows:
IL-2 dependent mouse cell line CTLL-2 cells were suspended in the RPMI1640 culture medium supplemented with 30% FCS to the concentration of 2×10^5 cells/ml. One hundred μl of the cell suspension and 100 μl of the two-fold serial dilution of the culture supernatant of PHA-stimulated mouse spleen cells were added to a 96-well flat-bottomed microtest plate. […] The IL-2 activity is expressed in U/ml as the dilution at which the absorbancy measured by MTT method was 50% of the maximum.

[5] = tested on: IL-3 production in PHA-stimulated mouse spleen cells; test: suppression of IL-3 production in PHA-stimulated mouse spleen cells; assay type: cell-based
Procedure: as §1, §2
The IL-3 activity was assayed as follows:
IL-3-dependent mouse cell line FDC-P2 cells were suspended in the RPMI1640 culture medium supplemented with 10% FCS to the concentration of 2×10^5 cells/ml. One hundred μl of the cell suspension and 100 μl of the two-fold serial dilution of the culture supernatant of PHA-stimulated mouse spleen cells described above were added to a 96-well flat-bottomed microtest plate. […] The IL-3 activity is expressed in U/ml as the dilution at which the absorbancy measured by MTT method was 50% of the maximum.

[6] = 0.003 mg/kg/day iv × 9, Table 10F
[7] = 0.01 mg/kg/day iv × 9, Table 10F
[8] = 0.03 mg/kg/day ip × 5, Table 10E
[9] = 0.03 mg/kg/day iv × 9, Table 10F
[10] = 0.1 mg/kg/day ip × 5, Table 10E
[11] = 0.1 mg/kg/day iv × 9, Table 10F
[12] = 0.3 mg/kg/day ip × 5, Table 10E
[13] = 0.3 mg/kg/day iv × 9, Table 10F
[14] = Mus musculus, 24 h, 0.001 μg/ml, read-out: Suppression
[15] = Mus musculus, 24 h, 0.01 μg/ml, read-out: Suppression
[16] = Mus musculus, 24 h, 0.1 μg/ml, read-out: Suppression
[17] = Mus musculus, 24 h, 1 μg/ml, read-out: Suppression

CCCCCCCCCCCCC/C=C/C[C@@H](O)[C@H](O)[C@@](N)(CO)C(=O)O [sodium salt of the compound of Example 5]
induction of allo-reactive cytotoxic T cells, sodium salt relative to the compound of Example 5 (in words) [1]: suppressive activity almost equivalent to that of the compound of Example 5 other than sodium salt
Allogenic cell-specific antibody in serum, suppression [2, 6]: 6.0%
Allogenic cell-specific antibody in serum, titer [2, 6]: 236 ± 76
Allogenic cell-specific antibody in serum, suppression [2, 7]: 39.4%
Allogenic cell-specific antibody in serum, titer [2, 7]: 152 ± 27
Allogenic cell-specific antibody in serum, suppression [2, 8]: 50.3%
Allogenic cell-specific antibody in serum, titer [2, 8]: 94 ± 14
Allogenic cell-specific antibody in serum, suppression [2, 9]: 68.5%
Allogenic cell-specific antibody in serum, titer [2, 9]: 79 ± 50
Allogenic cell-specific antibody in serum, suppression [2, 10]: 73.5%
Allogenic cell-specific antibody in serum, titer [2, 10]: 50 ± 4
Allogenic cell-specific antibody in serum, suppression [2, 11]: 84.1%
Allogenic cell-specific antibody in serum, titer [2, 11]: 40 ± 23
Allogenic cell-specific antibody in serum, suppression [2, 12]: 88.9%
Allogenic cell-specific antibody in serum, titer [2, 12]: 21 ± 8
Allogenic cell-specific antibody in serum, suppression [2, 13]: 81.7%
Allogenic cell-specific antibody in serum, titer [2, 13]: 46 ± 11
production of allo-specific cytotoxic antibody, sodium salt relative to the compound of Example 5 (in words) ([2]; Table 10E): suppressive activity almost equivalent to that of the compound of Example 5 other than sodium salt
suppressive activity of the sodium salt relative to that of the compound of Example 5 ([3]; Table 1B): almost the equivalent suppressive activity

N[C@](CO)(C(=O)O)[C@@H](O)[C@H](O)CCO [Example 6]
IL-2 activity ([4]; 0.001 μg/ml): 12.6 U/ml
IL-2 activity ([4]; 0.01 μg/ml): 10.2 U/ml
IL-2 activity ([4]; 0.1 μg/ml): 9.5 U/ml
IL-2 activity ([4]; 1 μg/ml): 8.3 U/ml
inhibition at 0.001 µg/mL [4, 14]: 6.7%
inhibition at 0.01 µg/mL [4, 15]: 24.4%
inhibition at 0.1 µg/mL [4, 16]: 29.6%
inhibition at 1 µg/mL [4, 17]: 38.5%
3H-thymidine uptake ([3]; 0.0001 μg/ml, Table 1A): 16771 cpm
3H-thymidine uptake ([3]; 0.001 μg/ml, Table 1A): 13692 cpm
3H-thymidine uptake ([3]; 0.01 μg/ml, Table 1A): 13806 cpm
3H-thymidine uptake ([3]; 0.1 μg/ml, Table 1A): 14508 cpm
3H-thymidine uptake ([3]; 1 μg/ml, Table 1A): 7545 cpm
inhibition at 0.0001 µg/mL ([3]; Mus musculus, Lymphocyte, 0.0001 μg/ml, Table 1A, read-out: Suppression): 9.9%
inhibition at 0.001 µg/mL ([3]; Mus musculus, Lymphocyte, 0.001 μg/ml, Table 1A, read-out: Suppression): 18.5%
inhibition at 0.01 µg/mL ([3]; Mus musculus, Lymphocyte, 0.01 μg/ml, Table 1A, read-out: Suppression): 27.5%
inhibition at 0.1 µg/mL ([3]; Mus musculus, Lymphocyte, 0.1 μg/ml, Table 1A, read-out: Suppression): 23.4%
inhibition at 1 µg/mL ([3]; Mus musculus, Lymphocyte, 1 μg/ml, Table 1A, read-out: Suppression): 64.8%
IC50 ([3]; Mus musculus, Lymphocyte, read-out: 50%-inhibition concentration (IC50) in mouse allogenic MLR): 0.045 µg/mL (≈ 0.215 µM)
IL-3 activity ([5]; 0.001 μg/ml): 23.8 U/ml
IL-3 activity ([5]; 0.01 μg/ml): 23.4 U/ml
IL-3 activity ([5]; 0.1 μg/ml): 23.3 U/ml
IL-3 activity ([5]; 1 μg/ml): 20.0 U/ml
inhibition at 0.001 µg/mL [5, 14]: 2.9%
inhibition at 0.01 µg/mL [5, 15]: 4.5%
inhibition at 0.1 µg/mL [5, 16]: 4.9%
inhibition at 1 µg/mL [5, 17]: 18.4%

CCCCCCCCCCCCC/C=C/C[C@@H](O)[C@H](O)[C@@](N)(CO)C(=O)O [potassium salt of compound of Example 5]
3H-thymidine uptake ([3]; 0.0001 μg/ml, Table 1B): 5622 ± 898 cpm
Suppression ([3]; 0.0001 μg/ml, Table 1B): 0%
3H-thymidine uptake ([3]; 0.001 μg/ml, Table 1B): 4984 ± 3755 cpm
Suppression ([3]; 0.001 μg/ml, Table 1B): 7.5%
3H-thymidine uptake ([3]; 0.01 μg/ml, Table 1B): 1324 ± 16 cpm
Suppression ([3]; 0.01 μg/ml, Table 1B): 85.5%
3H-thymidine uptake ([3]; 0.1 μg/ml, Table 1B): 787 ± 257 cpm
Suppression ([3]; 0.1 μg/ml, Table 1B): 97.0%
3H-thymidine uptake ([3]; 1 μg/ml, Table 1B): 783 ± 28 cpm
Suppression ([3]; 1 μg/ml, Table 1B): 97.1%
